Source: patent US20180136198A1, “SYNAPTIC VESICLE CYCLING ASSAYS AND SYSTEMS” (priority 2008, published 2018)

How the values were obtained:
Format in all cases: cell-based
[1] = test system: rat embryonic cortical neurons; test: synaptopHluorin fluorescence at whole-well level, Zeiss Axiovert Z1 inverted epifluorescence microscope
Description: By introduction into a high percentage of neurons plated at high density within a well, synaptopHluorins were used to measure synaptic vesicle cycling at the whole-well, population level. One way synaptopHluorin was introduced into neurons was by viral infection. Viral delivery of synaptopHluorin was used to validate the ability to measure the synaptic vesicle cycle at the population level. Adeno-associated virus (MOI=1000) was used to deliver synaptopHluorin into rat embryonic cortical neurons plated in 96-well optically-clear plastic-bottomed plates (Nunc) at 11 days in vitro. At 21 days in vitro, neurons were imaged on a Zeiss Axiovert Z1 inverted epifluoresence microscope using low magnification optics (10×, 0.45 NA objective) insufficient to resolve individual synapses. Neurons in the presence or absence of external Ca^++ were treated with ionomycin, a calcium ionophore that triggers synaptic vesicle exocytosis and the resulting fluorescence of synaptopHluorin.

[2] = test system: Primary rat neuronal cultures; test: synaptopHluorin fluorescence in 96-well plates on the plate::vision plate reader; conditions: Tyrode's solution, read every 2 seconds for 1 minute
Description: The plate::vision plate reader was evaluated for its ability to record the synaptic vesicle cycle in multiple wells in parallel. Primary rat neuronal cultures in 96-well plates were infected with the synaptopHluorin adeno-associated virus at 12 days in vitro. Culture medium was replaced with Tyrode's solution plus or minus external Ca^++. A baseline recording of fluorescence was measured in the entire plate on the plate::vision plate reader. Then, ionomycin was added to all wells, and fluorescence changes were measured every 2 seconds for 1 minute. […] These changes were similar to those observed when a similar experiment was performed on the Zeiss inverted epifluorescence microscope.

[3] = test system: rat embryonic cortical neurons; test: sypHy fluorescence (synaptic vesicle exocytosis) on Fluoroskan Ascent FL plate reader; conditions: 10 uM; GFP-fluorescence recorded at 5 Hz; 33 DIV
Description: It was determined that a Fluoroskan Ascent FL plate reader is capable of measuring aspects of synaptic vesicle cycling, e.g., exocytosis, in neuronal cells expressing a synaptophysin-pHluorin reporter. Rat embryonic cortical neurons were cultured in Greiner uClear 96-well plates. At 7 DIV, cultures were infected with sypHy-AAV. At 33 DIV, culture media was replaced with assay buffer, the plate was loaded onto the Fluoroskan Ascent FL plate reader, and GFP-fluorescence was recorded at 5 Hz. This plate reader uses a photomultiplier tube (PMT) to measure the fluorescence levels in a single well at a time. A baseline fluorescence level was determined, ionomycin (10 uM) was added to induce synaptic vesicle exocytosis, and the resulting change in fluorescence was measured on by plate reader. […] (FIG. 27.)

C[C@H](CCC(=O)O)C[C@H](C)C[C@H](C)C(=O)/C=C(\O)[C@H](C)C[C@H](C)C/C=C/[C@@H](C)[C@@H](O)[C@@H](C)[C@@H](O)C[C@@H]1CC[C@@](C)([C@H]2CC[C@@](C)([C@@H](C)O)O2)O1 [ionomycin]
increase in synaptopHluorin signal ([1]; in the absence of external Ca++): about 3% | increase in synaptopHluorin signal ([1]; in the presence of external Ca++): approximately 20% | increase in fluorescence ([2]; absence of Ca++): < 5% | increase in fluorescence ([2]; in the presence of Ca++): about 20% | increase in fluorescence intensity [3]: ~15%
